Patent US20220031708A1, “METHOD FOR TREATING IDIOPATHIC PULMONARY FIBROSIS” (NuMedii, Inc., priority 2019, published 2022)
Read-outs that look alike come from different tables or passages of the source.

Key:
[1] = system: lung fibroblasts isolated from human IPF donor lungs; test: Fibroblast-to-myofibroblast transition (FMT), aSMA induction by TGFb, IPF donor fibroblasts; assay type: cell-based; settings: 1.25 ng/mL TGFb; for IC50: Homo sapiens, Fibroblast, 72 h, read-out: LogM IC50 aSMA (converted); for LogM IC50 aSMA: 72 hours
Description: (§1) Primary fibroblasts cultured from the lungs of patients with IPF (n=3) or healthy donors (n=3) were exposed to Chk1 inhibitors or control compounds to determine the effect of Chk1 inhibitors on fibroblast differentiation into myofibroblasts (i.e., fibroblast-to-myofibroblast transition [FMT]). […] Chk1 inhibitors were dosed in an 8-point concentration curve 1 hr prior to TGFb treatment. Alpha-SMA and DAPI staining were assessed after 72 hours using high content analysis. The ability of the Chk1 inhibitors to block fibroblast-to-myofibroblast differentiation was determined by quantifying percent inhibition (PIN) of aSMA induction. Cell viability was also measured to determine whether the compounds were cytotoxic.

[2] = system: Primary fibroblasts cultured from the lungs of healthy donors; test: Fibroblast-to-myofibroblast transition (FMT), aSMA induction by TGFb, healthy donor fibroblasts; assay type: cell-based, human; settings: 1.25 ng/mL TGFb; for IC50: Homo sapiens, Fibroblast, 72 h, read-out: LogM IC50 aSMA (converted); for LogM IC50 aSMA: 72 hours
Description: as §1

[3] = system: mouse model of pulmonary fibrosis; test: Bleomycin mouse model of pulmonary fibrosis: histopathology and collagen deposition; assay type: in vivo, C57BL6 mice; settings: for Collagen deposition (% pixel count) / Fiber Alignment / Fiber Count / Fiber Density: relative vs vehicle; for disease burden by collagen deposition, fiber count, fiber density and fiber alignment (Sirius red): FIG. 4A, FIG. 4B, Table 8; for histopathology scores (Ashcroft, Masson's Trichrome): PF-477736 10 or 20 mg/kg i.p., nintedanib 100 mg/kg orally, FIG. 3A
Description: To induce fibrosis, 6-8 week old C57BL6 mice were dosed with 3 mg/kg bleomycin hydrochloride in a volume of 50 μL per animal via intratracheal (i.t.) administration with a microsprayer. One week following administration of bleomycin, mice were treated with compound or vehicle once daily from day 7 to day 20. PF-477736 was administered at a dose of either 10 mg/kg (“med”) or 20 mg/kg (“high”) i.p. in a vehicle of […] sodium acetate buffer and 4% dextrose, pH 4. Nintedanib was administered orally at 100 mg/kg in a vehicle of 1% methylcellulose. n=10 mice per group.
At the end of the study, lungs were processed using standard histological methods for Masson's Trichrome staining and were assigned Ashcroft scores by a blinded pathologist.
Whole lung imaging was performed using a modified deep learning algorithm to calculate an average histogram (FIG. 3B) and empirical cumulative density function (ECDF, FIG. 3C) for each arm. The X axes represent severity of pathology, and the Y axes represent frequency (histograms) or cumulative frequency (ECDF).
Histological sections were also stained using Sirius red and assessed for collagen deposition (%), collagen fiber count, collagen fiber density, and collagen fiber alignment in a protocol modified from Bredfeldt et al. 2014, “Computational segmentation of collagen fibers from second-harmonic generation images of breast cancer.” Journal of biomedical optics 19.1.

[4] = system: Human lung fibroblasts from three donors; test: FMT assay, Chk1 inhibitor combined with nintedanib or pirfenidone; assay type: cell-based; settings: nintedanib concentration curve, Chk1 inhibitor at pre-determined IC20; FIG. 7
Description: Human lung fibroblasts from three donors were seeded in 96-well plates and treated with 1.25 ng/mL TGFb to induce differentiation to a myofibroblast phenotype (characterized by the induction of alpha smooth muscle actin—aSMA). A Chk1 inhibitor PF-477736, or standard-of-care compounds in IPF (nintedanib or pirfenidone) were dosed as indicated in an 8-point concentration curve 1 hr prior to TGFb treatment. Alpha-SMA and DAPI staining were assessed after 72 hours using high content analysis for percent inhibition of aSMA induction and % viable cells. CRC=concentration response curve. The first noted compound was dosed in an 8-point concentration curve, while the second noted compound was dosed at the pre-determined IC20 in this assay.
For each condition, percent inhibition (PIN) of aSMA induction was calculated (circles, and left y-axis), and the percent of viable cells was calculated (triangles, right y-axis).

[5] = system: M1 macrophages differentiated from human monocytes; test: M1 macrophage activation, CD80 flow cytometry after LPS/IFNg; assay type: cell-based; settings: dosed 1 hour before LPS/IFNg, 3 days; FIG. 2A
Description: (§2) Human monocytes were isolated from the peripheral blood of IPF patients, exposed to various doses of PF-477736 for 1 hour, and then differentiated into M1 macrophages by exposure to LPS/IFNg, or into M2 macrophages by exposure to IL-4, for 3 days. The cells were analyzed by flow cytometry for CD80 cell surface expression as marker of M1 differentiation, and for CD163 cell surface expression as marker of M2 differentiation. In addition, cell supernatants were tested in a Luminex-based assay for various cytokines and matrix metalloproteinases (MMPs).

[6] = system: M2 macrophages differentiated from human monocytes; test: M2 macrophage activation, CD163 flow cytometry after IL-4; assay type: cell-based; settings: dosed 1 hour before IL-4, 3 days; FIG. 2B
Description: as §2

[7] = system: macrophages exposed to LPS and IFNg; test: Luminex-based assay of cytokines and MMPs in macrophage supernatants; assay type: cell-based, human; settings: FIG. 2C
Description: as §2

[8] = donor FB0303*, Healthy (aberrant response to nintedanib)
[9] = 100 mg/kg orally once daily day 7 to day 20
[10] = 20 mg/kg i.p. once daily day 7 to day 20
[11] = Multi-dose: mice from both the 10 mg/kg and the 20 mg/kg groups

NC(=O)Nc1cc(-c2cccc(F)c2)sc1C(=O)N[C@H]1CCCNC1 [AZD-7762]
IC50 ([1]; donor IPF06, IPF): 794 nM
IC50 ([1]; donor IPF07, IPF): 794 nM
IC50 ([1]; donor IPF08, IPF): 501 nM
IC50 ([2]; donor FB0054, Healthy): 1260 nM
IC50 ([2]; donor FB2382, Healthy): 631 nM

COc1cc2nc(-c3cc(F)ccc3O)nc(N[C@@H]3CNC[C@H]3C(C)(C)O)c2cc1OC [CCT-241533]
IC50 ([1]; donor IPF06, IPF): 631 nM
IC50 ([1]; donor IPF07, IPF): 158 nM
IC50 ([1]; donor IPF08, IPF): 316 nM
IC50 ([2]; donor FB0054, Healthy): 398 nM
IC50 ([2]; donor FB2382, Healthy): 501 nM

N#Cc1cnc(Nc2cc(NC[C@H]3CNCCO3)c(C(F)(F)F)cn2)cn1 [CCT-245737]
IC50 ([1]; donor IPF06, IPF): 3160 nM
IC50 ([1]; donor IPF07, IPF): 3160 nM
IC50 ([1]; donor IPF08, IPF): 3160 nM
IC50 ([2]; donor FB0054, Healthy): 3160 nM
IC50 [2, 8]: 2510 nM
IC50 ([2]; donor FB2382, Healthy): 3160 nM

N[C@@H]1CCCN(c2c(Br)cnc3[nH]cc(NC(=O)C4CC4)c23)C1 [GDC-0575]
LogM IC50 aSMA ([1]; donor IPF06, IPF): −5.7 LogM
LogM IC50 aSMA ([1]; donor IPF07, IPF): −5.7 LogM
LogM IC50 aSMA ([1]; donor IPF08, IPF): −5.8 LogM
LogM IC50 aSMA ([2]; donor FB0054, Healthy): −5.9 LogM
LogM IC50 aSMA [2, 8]: −5.8 LogM
LogM IC50 aSMA ([2]; donor FB2382, Healthy): −5.9 LogM

Cn1cc(-c2cnn3c(N)c(Br)c([C@@H]4CCCNC4)nc23)cn1 [MK-8776]
IC50 ([1]; donor IPF06, IPF): 2000 nM
IC50 ([1]; donor IPF07, IPF): 2000 nM
IC50 ([1]; donor IPF08, IPF): 1580 nM
IC50 [2, 8]: 398 nM
IC50 ([2]; donor FB2382, Healthy): 3160 nM

COC(=O)c1ccc2c(c1)NC(=O)/C2=C(\Nc1ccc(N(C)C(=O)CN2CCN(C)CC2)cc1)c1ccccc1 [Nintedanib]
Collagen deposition (% pixel count) [3, 9]: +0.31 % pixel count
Fiber Alignment [3, 9]: −0.03
Fiber Count [3, 9]: +20
Fiber Density [3, 9]: +0.40
disease burden by collagen deposition, fiber count, fiber density and fiber alignment (Sirius red) [3]: did not
histopathology scores (Ashcroft, Masson's Trichrome) [3]: improved histopathology scores
concentration of nintedanib required for 50% inhibition of fibroblast to myofibroblast differentiation [4]: lower when co-administered with a Chk1 inhibitor

COc1cccc(OCCCN)c1-c1cc(Nc2cnc(C#N)cn2)n[nH]1 [prexasertib]
IC50 ([1]; donor IPF06, IPF): 1000 nM
IC50 ([1]; donor IPF07, IPF): 1000 nM
IC50 ([1]; donor IPF08, IPF): 631 nM
IC50 ([2]; donor FB0054, Healthy): 631 nM
IC50 ([2]; donor FB2382, Healthy): 794 nM

PF-477736
M1 macrophage activation (CD80 cell surface expression) [5]: inhibits M1 macrophage activation in a dose-dependent manner
M2 macrophage activation (CD163 cell surface expression) [6]: inhibits M2 macrophage activation in a dose-dependent manner
levels of representative cytokines and matrix metalloproteinases in supernatants [7]: lower levels of representative cytokines and matrix metalloproteinases
Collagen deposition (% pixel count) ([3]; 10 mg/kg i.p. once daily day 7 to day 20): −1.27 % pixel count
Collagen deposition (% pixel count) [3, 10]: −1.64 % pixel count
Fiber Alignment [3, 10]: 0.08
Fiber Count [3, 10]: −66.3
Fiber Density [3, 10]: −0.66
disease burden by collagen deposition, fiber count, fiber density and fiber alignment (Sirius red) [3]: reduced disease burden by all of these parameters in a dose-dependent manner
Collagen deposition (% pixel count) [3, 11]: −1.63 % pixel count
Fiber Alignment [3, 11]: 0.08
Fiber Count [3, 11]: −67.7
Fiber Density [3, 11]: −0.69
histopathology scores (Ashcroft, Masson's Trichrome) [3]: improved histopathology scores
pathology severity, whole lung imaging (histogram, ECDF) ([3]; deep learning algorithm, FIG. 3B, 3C): greater reduction in pathology severity compared to nintedanib
